Test results reported in article PMC7339578, “Multiple circulating alkaloids and saponins from intravenous Kang-Ai injection inhibit human cytochrome P450 and UDP-glucuronosyltransferase isozymes: potential drug–drug interactions” (Chinese Medicine, 2020).
Read-outs that look alike come from different tables or passages of the source.

Tests used:
[1] = Biliary (hepatobiliary) excretion in rats after a 30-min infusion of Kang-Ai injection; type: in vivo, Sprague–Dawley rats; details: rat, in vivo, iv
Protocol: (§1) For urine sampling, the rats were housed singly in metabolic cages. And then, the urine samples were collected at 0–4, 4–8 and 8–12 h after starting infusion and were weighed. Likewise, bile samples were also collected at 0–3, 3–6, 6–9 and 9–12 h after starting infusion and were weighed. The urine and bile collection tubes were all frozen at − 80 °C.
(§2) Pharmacokinetic parameters were estimated by non-compartmental analysis using WinNonlin 6.3 software (Pharsight, NC, US). Data are presented as the mean ± SD (n = 3). The area under the concentration–time curve up to the last measured point in time (AUC0-t) was calculated using the trapezoidal rule. The total plasma clearance (CLtot, p) was calculated by dividing the compound dose by the AUC0-∞, and the distribution volume at steady state (VSS) was estimated by multiplying the CLtot, p by the mean residence time (MRT). The renal excretory clearance (CLR) and hepatobiliary (CLB) was determined by dividing the cumulative amount excreted into urine (Cum.Ae-U) and bile (Cum.Ae-B) by the plasma AUC0-∞, respectively. The fractions of dose excreted into urine (fe-U) and the fractions of dose excreted into bile (fe-B) were established using the relationship Cum.Ae-U/Dose and Cum.Ae-B/Dose, respectively. Mean differences between treatment and control groups were analyzed by two-tailed unpaired Student’s t test by Graphpad Prism V5 software (SanDiego, CA). The level of significance was set at p < 0.05 (∗), p < 0.01 (∗∗) or p < 0.001 (∗∗∗).

[2] = Plasma pharmacokinetics in rats after a 30-min intravenous infusion of Kang-Ai injection; type: in vivo, Sprague–Dawley rats
Protocol: Specific pathogen free (SPF) grade male Sprague–Dawley rats (250 ± 20) g were provided by the Experimental Animal Center of Zhengzhou University (Zhengzhou, China). These rats were kept in a designated animal room at constant temperature (22 ± 2) °C and humidity (50 ± 20) % with 12 h of light/dark per day and free access to water and food. All protocols of animal experiments were approved in accordance with the Regulations of Experimental Animal Administration issued by the Ethics Review Committee for Animal Experimentation of Jinan University (Ethical Review NO. 20190301010). Prior to the experiments, the rats were fasted for 12 h but with free access to water. After study use, the rats were euthanized with CO2 gas.
The rats in this study all received a single 30-min intravenous infusion of Kang-Ai injection via the tail veins using TYD01-02 infusion pumps (Lead Fluid, Baoding, China). The dose was derived from the label daily dose of Kang-Ai injection (60 mL/person, once daily) according to dose normalization by body surface area. For plasma pharmacokinetic studies, the rats were randomly received a single intravenous 30 min-bolus dose at 6 mL/kg. Blood samples (100 μL) were collected from the rats’ external jugular veins into heparinized polypropylene tubes at 5, 15, 30, 45 min, and 1, 1.5, 2, 3, 4, 6, 8, 12 h. After gently shaking for 10 s, the blood samples were centrifuged at 13000 g for 10 min to yield plasma samples, which were kept frozen at − 80 °C until analysis.
as §2

[3] = Urinary (renal) excretion in rats after a 30-min infusion of Kang-Ai injection; type: in vivo, Sprague–Dawley rats
Protocol: as §1, §2

[4] = Stability tests of analytes in rat plasma QC samples; type: in vitro ADME; details: rat plasma
Protocol: […] The dilution integrity was investigated by analyzing six replicate samples with each analyte, and each analyte were diluted 10-fold with blank rat matrix. Furthermore, the diluted samples were analyzed using freshly prepared calibration curve to calculate RE and RSD, which should be no more than ± 15% as criterion.

[5] = Protein binding assay (equilibrium dialysis); type: in vitro ADME, rat; details: rat plasma
Protocol: Binding of circulating alkaloids and saponins to rat plasma was measured by equilibrium dialysis using Spectra/Por 2 dialysis membranes (molecular weight cutoff, 12–14 kDa; Rancho Dominguez, CA, USA) as described. After equilibrating for 24 h at 55 rpm and 37 °C, the dialysate and the plasma were sampled for analysis. […] The concentrations of tested matrine, oxysophocarpine and oxymatrine were 2 μmol/L, while those of astragaloside IV, III, and ginsenosides Rh1, Rg2, Rg1, Rf, Re, Rd, Rc, Rb1, Rb2, notoginsenosides R1, R2, were 4 μmol/L. The unbound fraction (fu-plasma) in rat plasma was calculated as follow: fu-plasma = Cd/Cp × 100%, where the Cd and Cp values were the concentrations of each analyte in the dialysate sample and in the post-dialysis plasma sample, respectively.

[6] = rat urine 0–12 h, Kang-Ai injection 6 mL/kg iv
[7] = rat plasma, 30-min iv infusion of Kang-Ai injection 6 mL/kg

Compound | CLB (hepatobiliary clearance) [1] [mL/h] | fe-B,0–12h (fraction of dose excreted into bile) [1] [%] | CLtot, p ([2]; rat, in vivo, iv) [mL/h] | Cmax ([2]; rat, in vivo, iv) [nM] | VSS ([2]; rat, in vivo, iv) [mL] | t1/2 ([2]; rat, in vivo, iv) [h] | CLR (renal excretory clearance) ([3]; rat, in vivo, iv) [mL/h] | fe-U,0–12h (fraction of dose excreted into urine) ([3]; rat, in vivo, iv) [%] | At -80 °C for 48 h, Mean±SD ([4]; nominal conc. 20 nM) [nM] | At -80 °C for 48 h, RE ([4]; nominal conc. 20 nM) [%] | Extracted samples at 8 °C for 18 h, Mean±SD ([4]; nominal conc. 20 nM) [nM] | Extracted samples at 8 °C for 18 h, RE ([4]; nominal conc. 20 nM) [%] | Short-term stability at room temperature for 6 h, Mean±SD ([4]; nominal conc. 20 nM) [nM] | Short-term stability at room temperature for 6 h, RE ([4]; nominal conc. 20 nM) [%] | Three freeze-thaw cycles (-80 °C ↔ 23 °C), Mean±SD ([4]; nominal conc. 20 nM) [nM] | Three freeze-thaw cycles (-80 °C ↔ 23 °C), RE ([4]; nominal conc. 20 nM) [%] | At -80 °C for 48 h, Mean±SD ([4]; nominal conc. 100 nM) [nM] | At -80 °C for 48 h, RE ([4]; nominal conc. 100 nM) [%] | Extracted samples at 8 °C for 18 h, Mean±SD ([4]; nominal conc. 100 nM) [nM] | Extracted samples at 8 °C for 18 h, RE ([4]; nominal conc. 100 nM) [%] | also measured
O=C1CCC[C@@H]2[C@H]3CCCN4CCC[C@@](O)(CN12)[C@@H]34 [Compound A9, Sophoranol] | 0.68 ± 0.16 | 1.27 ± 0.20 | 56.05 ± 22.70 | 397 ± 49.7 | 53.50 ± 7.71 | 0.82 ± 0.37 | 34.24 ± 17.17 | 59.77 ± 8.80 | – | – | – | – | – | – | – | – | – | – | – | – | –
CC(C)=CCC[C@](C)(O[C@@H]1O[C@H](CO[C@@H]2OC[C@H](O)[C@H](O)[C@H]2O)[C@@H](O)[C@H](O)[C@H]1O)[C@H]1CC[C@]2(C)[C@@H]1[C@H](O)C[C@@H]1[C@@]3(C)CC[C@H](O[C@@H]4O[C@H](CO)[C@@H](O)[C@H](O)[C@H]4O[C@@H]4O[C@H](CO)[C@@H](O)[C@H](O)[C@H]4O)C(C)(C)[C@@H]3CC[C@]12C [Compound D4, Ginsenoside Rb2] | – | – | – | – | – | – | – | – | 20.39 ± 1.54 | -6.96 | 19.58 ± 2.21 | -12.48 | 20.28 ± 1.99 | 10.37 | 20.89 ± 1.50 | 11.32 | 95.34 ± 8.02 | -12.47 | 96.04 ± 12.11 | -10.99 | Short-term stability at room temperature for 6 h, Mean±SD ([4]; nominal conc. 100 nM): 88.84 ± 2.61 nM; Short-term stability at room temperature for 6 h, RE ([4]; nominal conc. 100 nM): -13.48%; Three freeze-thaw cycles (-80 °C ↔ 23 °C), Mean±SD ([4]; nominal conc. 100 nM): 104.61 ± 9.20 nM; Three freeze-thaw cycles (-80 °C ↔ 23 °C), RE ([4]; nominal conc. 100 nM): 10.55%; At -80 °C for 48 h, Mean±SD ([4]; nominal conc. 400 nM): 423.10 ± 46.59 nM; At -80 °C for 48 h, RE ([4]; nominal conc. 400 nM): 12.64%; Extracted samples at 8 °C for 18 h, Mean±SD ([4]; nominal conc. 400 nM): 434.41 ± 11.65 nM; Extracted samples at 8 °C for 18 h, RE ([4]; nominal conc. 400 nM): 11.01%; Short-term stability at room temperature for 6 h, Mean±SD ([4]; nominal conc. 400 nM): 352.24 ± 2.93 nM; Short-term stability at room temperature for 6 h, RE ([4]; nominal conc. 400 nM): -12.50%; Three freeze-thaw cycles (-80 °C ↔ 23 °C), Mean±SD ([4]; nominal conc. 400 nM): 440.44 ± 2.62 nM; Three freeze-thaw cycles (-80 °C ↔ 23 °C), RE ([4]; nominal conc. 400 nM): 13.72%; fraction unbound at 24 h ([5]; equilibrium dialysis 24 h, 37 °C, 2 μmol/L alkaloids, 4 μmol/L saponins, read-out: fu-plasma (unbound fraction)): 0.0067 ± 0.0005; clearance ([2]; male, Sprague-Dawley, plasma, rat, 30-min iv infusion of Kang-Ai injection 6 mL/kg, Table 1 unit, read-out: CLtot, p (converted)): 0.13 mL/min; Vd ([2]; male, Sprague-Dawley, plasma, rat, 30-min iv infusion of Kang-Ai injection 6 mL/kg, Table 1 unit, read-out: VSS): 0.0396 ± 0.0073 L; Cmax ([2]; male, Sprague-Dawley, rat plasma, 30-min iv infusion of Kang-Ai injection 6 mL/kg, read-out: Cmax): 301 ± 34.2 nM; half-life ([2]; male, Sprague-Dawley, rat plasma, 30-min iv infusion of Kang-Ai injection 6 mL/kg, read-out: t1/2 (converted)): 4.12 ± 0.83 h; CL renal ([3]; male, Sprague-Dawley, urine and plasma, rat, Kang-Ai injection 6 mL/kg iv, read-out: CLR (renal excretory clearance) (converted)): 0.0357 mL/min; fe-U,0–12h (fraction of dose excreted into urine) [3, 6]: 27.80 ± 4.47%
O=C1CCCC2=C3CCC[N+]4([O-])CCC[C@@H](CN12)[C@@H]34 (stereo partly shown) [Compound A7, Leontalbinine N-oxide] | 1.42 ± 0.17 | 7.30 ± 1.41 | 20.03 ± 4.84 | 202 ± 19.1 | 150.70 ± 19.02 | 5.73 ± 1.74 | 12.32 ± 4.14 | 61.05 ± 10.61 | – | – | – | – | – | – | – | – | – | – | – | – | MRT ([2]; rat, in vivo, iv): 7.94 h
CC(C)(O)[C@@H]1CC[C@](C)([C@H]2[C@@H](O)C[C@@]3(C)[C@@H]4C[C@H](O)[C@H]5C(C)(C)[C@@H](O[C@@H]6OC[C@@H](O)[C@H](O)[C@H]6O[C@@H]6O[C@H](CO)[C@@H](O)[C@H](O)[C@H]6O)CC[C@@]56C[C@@]46CC[C@]23C)O1 [Compound B3, Astragaloside III] | – | – | – | – | – | – | – | – | 19.85 ± 0.45 | -3.31 | 17.98 ± 1.29 | -14.29 | 19.47 ± 1.70 | -12.31 | 19.24 ± 0.59 | -6.46 | 89.68 ± 4.10 | -13.24 | 99.17 ± 12.67 | 13.54 | Short-term stability at room temperature for 6 h, Mean±SD ([4]; nominal conc. 100 nM): 91.15 ± 3.72 nM; Short-term stability at room temperature for 6 h, RE ([4]; nominal conc. 100 nM): -13.15%; Three freeze-thaw cycles (-80 °C ↔ 23 °C), Mean±SD ([4]; nominal conc. 100 nM): 103.49 ± 8.05 nM; Three freeze-thaw cycles (-80 °C ↔ 23 °C), RE ([4]; nominal conc. 100 nM): 9.29%; At -80 °C for 48 h, Mean±SD ([4]; nominal conc. 400 nM): 431.79 ± 15.31 nM; At -80 °C for 48 h, RE ([4]; nominal conc. 400 nM): 12.29%; Extracted samples at 8 °C for 18 h, Mean±SD ([4]; nominal conc. 400 nM): 400.78 ± 32.83 nM; Extracted samples at 8 °C for 18 h, RE ([4]; nominal conc. 400 nM): -8.93%; Short-term stability at room temperature for 6 h, Mean±SD ([4]; nominal conc. 400 nM): 348.69 ± 3.47 nM; Short-term stability at room temperature for 6 h, RE ([4]; nominal conc. 400 nM): -13.71%; Three freeze-thaw cycles (-80 °C ↔ 23 °C), Mean±SD ([4]; nominal conc. 400 nM): 387.44 ± 17.00 nM; Three freeze-thaw cycles (-80 °C ↔ 23 °C), RE ([4]; nominal conc. 400 nM): -6.84%; bound in rat plasma ([5]; equilibrium dialysis): ~90%; fu-plasma (unbound fraction) ([5]; equilibrium dialysis 24 h, 37 °C, 2 μmol/L alkaloids, 4 μmol/L saponins): 11.04 ± 0.86%; AUC0–12h [2, 7]: 0.03429 ± 0.00522 µM·h; t1/2 [2, 7]: 0.33 ± 0.13 h; Cmax ([2]; rat plasma, 30-min iv infusion of Kang-Ai injection 6 mL/kg, read-out: Cmax): 54.8 ± 10.2 nM; VSS (Vd) ([2]; rat, Kang-Ai injection 6 mL/kg iv): < 0.1 L/kg; fe-U,0–12h (fraction of dose excreted into urine) [3, 6]: 2.60 ± 0.69%
